Data: the supplement of paper PMC13380429

How the values were obtained:
Settings in all cases: 72 h
HepG2 [1] = experiment: relative viability EC50 (midpoint between 100% and the lowest measured viability); higher = less toxic
Vero E6 [2] = experiment: as above
Calu-3 [3] = experiment: as above
HepG2 [4] = experiment: cell viability relative to DMSO; higher = less toxic
Vero E6 [5] = experiment: as above
Calu-3 [6] = experiment: as above
HepG2 [7] = experiment: drug sensitivity score (DSS) for viability; higher = more toxic; extreme values may be limits of the assay
Vero E6 [8] = experiment: as above
Calu-3 [9] = experiment: as above
U2OS [10] = experiment: relative viability EC50 (midpoint between 100% and the lowest measured viability); higher = less toxic
Caco-2 [11] = experiment: cell viability relative to DMSO; higher = less toxic
U2OS [12] = experiment: as above
Caco-2 [13] = experiment: drug sensitivity score (DSS) for viability; higher = more toxic; extreme values may be limits of the assay
U2OS [14] = experiment: as above

| Structure (SMILES) | relative viability EC50 (HepG2 [1]) [µM] | relative viability EC50 (Vero E6 [2]) [µM] | relative viability EC50 (Calu-3 [3]) [µM] | cell viability (HepG2 [4]; 1 nM) [%] | cell viability (HepG2 [4]; 10 nM) [%] | cell viability (HepG2 [4]; 100 nM) [%] | cell viability (HepG2 [4]; 1000 nM) [%] | cell viability (HepG2 [4]; 10000 nM) [%] | cell viability (Vero E6 [5]; 1 nM) [%] | cell viability (Vero E6 [5]; 10 nM) [%] | cell viability (Vero E6 [5]; 100 nM) [%] | cell viability (Vero E6 [5]; 1000 nM) [%] | cell viability (Vero E6 [5]; 10000 nM) [%] | cell viability (Calu-3 [6]; 1 nM) [%] | cell viability (Calu-3 [6]; 10 nM) [%] | cell viability (Calu-3 [6]; 100 nM) [%] | cell viability (Calu-3 [6]; 1000 nM) [%] | cell viability (Calu-3 [6]; 10000 nM) [%] | drug sensitivity score (HepG2 [7]) | drug sensitivity score (Vero E6 [8]) | drug sensitivity score (Calu-3 [9]) | relative viability EC50 (U2OS [10]) [µM] | cell viability (Caco-2 [11]; 1 nM) [%] | cell viability (Caco-2 [11]; 10 nM) [%] | cell viability (Caco-2 [11]; 100 nM) [%] | cell viability (Caco-2 [11]; 1000 nM) [%] | cell viability (Caco-2 [11]; 10000 nM) [%] | cell viability (U2OS [12]; 1 nM) [%] | cell viability (U2OS [12]; 10 nM) [%] | cell viability (U2OS [12]; 100 nM) [%] | cell viability (U2OS [12]; 1000 nM) [%] | cell viability (U2OS [12]; 10000 nM) [%] | drug sensitivity score (Caco-2 [13]) | drug sensitivity score (U2OS [14]) |
| --- | --- | --- | --- | --- | --- | --- | --- | --- | --- | --- | --- | --- | --- | --- | --- | --- | --- | --- | --- | --- | --- | --- | --- | --- | --- | --- | --- | --- | --- | --- | --- | --- | --- | --- |
| C=CC(=O)c1ccc2ccccc2c1 [JAK3-inhibitor-V] | > 10 | > 10 | > 10 | 106 | 108 | 98.8 | 110 | 110 | 99.5 | 107 | 99.8 | 104 | 101 | 110 | 97.3 | 111 | 94.8 | 96.6 | 0 | 0 | 0 | – | – | – | – | – | – | – | – | – | – | – | – | – |
| CCNC(=O)C[C@@H]1N=C(c2ccc(Cl)cc2)c2cc(OC)ccc2-n2c(C)nnc21 [I-BET-762] | – | 1.04 | – | 111 | 112 | 98.8 | 64.9 | 50.2 | 98.1 | 104 | 104 | 59.9 | 15.9 | 104 | 116 | 104 | 93.7 | 60.8 | 6.9 | 9.8 | 3 | 1.69 | 94.8 | 100 | 88.6 | 91.3 | 72.8 | 94.7 | 101 | 90 | 87.9 | 47.8 | 2 | 4.5 |
| C[C@@H]1CCCN1CCc1cc2cc(-c3ccc(C#N)cc3)ccc2o1 [ABT-239] | > 10 | > 10 | – | 105 | 92.9 | 94.8 | 90.9 | 75.9 | 89.8 | 94.9 | 92 | 91.2 | 91.8 | 95.5 | 96.1 | 106 | 111 | 58.9 | 1.4 | 0 | 1.5 | > 10 | 86.8 | 106 | 93.4 | 97.2 | 68.1 | 96.3 | 101 | 97.9 | 102 | 87 | 1.9 | 0.1 |
| OCCN1CCN(CCCN2c3ccccc3Sc3ccc(Cl)cc32)CC1 [perphenazine] | – | – | > 10 | 114 | 100 | 94.7 | 96 | 59.3 | 107 | 96.4 | 100 | 99.8 | 71.5 | 95.6 | 93.5 | 106 | 101 | 77.2 | 2.7 | 1.2 | 0.7 | > 10 | 99.4 | 100 | 94.8 | 72.7 | 69.8 | 101 | 97 | 101 | 99.3 | 90.6 | 5.1 | 0 |
| NC12CC3CC(CC(C3)C1)C2 [amantadine] | – | – | – | – | – | – | – | – | – | – | – | – | – | – | – | – | – | – | 0 | 0 | 0 | – | – | – | – | – | – | – | – | – | – | – | – | 0 |
| Cc1cccc(C)c1OCC(C)N (stereo not drawn) [mexiletine] | – | – | – | – | – | – | – | – | – | – | – | – | – | – | – | – | – | – | 0.1 | 0 | 0 | – | – | – | – | – | – | – | – | – | – | – | – | 0 |
| CCC[C@H]1C(=O)N2C(N(C)C)=Nc3ccc(C)cc3N2C1=O [azapropazone] | – | – | – | – | – | – | – | – | – | – | – | – | – | – | – | – | – | – | 0 | 0 | 0 | – | – | – | – | – | – | – | – | – | – | – | – | 0 |
| COc1ccc(C(=O)c2c(C)n(CCN3CCOCC3)c3ccccc23)cc1 [pravadoline] | > 10 | > 10 | – | 100 | 99.9 | 108 | 100 | 99.5 | 106 | 107 | 105 | 100 | 95.7 | – | – | – | – | – | 0 | 0 | – | – | 104 | 99.7 | 91.9 | 95.1 | 50.8 | 92 | 97.4 | 95.5 | 99.7 | 55.5 | 3.4 | 2.3 |
| CC(C)Oc1ccc(-c2nn([C@@H](C)c3oc4ccc(F)cc4c(=O)c3-c3cccc(F)c3)c3ncnc(N)c23)cc1F [TGR-1202] | > 10 | – | – | 101 | 108 | 108 | 111 | 98.2 | – | – | – | – | – | – | – | – | – | – | 0 | – | – | – | – | – | – | – | – | – | – | – | – | – | – | – |
